# Test results taken from patent US10583143B2, “Methods and compositions for the treatment or prevention of abnormal bone formation in a soft tissue” (THE BRIGHAM AND WOMEN'S HOSPITAL, INC., priority 2015, dated 2020).
# Entries after “also recorded” stand apart in the source; their conditions may differ.
# Assays:
# [1] = target: T1, ALK4/ACVR1B (Homo sapiens, UniProt P36896); assay: CAGA-Luc luciferase reporter in HEK293 cells driven by constitutively active ALK4; format: cell-based; conditions: Ad.caALK4, read-out: IC50 inhibition of caALK4 activity (CAGA-Luc)
# T1 sequence (P36896 1-505 T206D): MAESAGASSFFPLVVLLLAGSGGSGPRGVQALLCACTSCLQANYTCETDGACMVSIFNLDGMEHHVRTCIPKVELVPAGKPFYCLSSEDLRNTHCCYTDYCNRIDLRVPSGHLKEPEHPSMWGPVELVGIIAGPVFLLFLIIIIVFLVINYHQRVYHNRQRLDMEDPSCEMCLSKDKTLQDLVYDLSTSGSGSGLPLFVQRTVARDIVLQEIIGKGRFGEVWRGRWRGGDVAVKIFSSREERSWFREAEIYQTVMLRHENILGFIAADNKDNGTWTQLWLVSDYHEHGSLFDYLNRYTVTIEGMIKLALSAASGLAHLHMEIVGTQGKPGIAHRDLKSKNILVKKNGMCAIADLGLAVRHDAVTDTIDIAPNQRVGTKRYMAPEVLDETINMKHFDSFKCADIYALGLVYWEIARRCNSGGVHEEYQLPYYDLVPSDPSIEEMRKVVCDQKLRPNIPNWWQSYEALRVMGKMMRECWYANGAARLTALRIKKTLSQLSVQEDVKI
# Procedure: (§1) Inhibition of BMP-mediated gene transcription was measured via the activity of a BMP-response element luciferase reporter (BRE-Luc) stably expressed in the C2C12 cell line as a measure of BMP signaling inhibition, with gene expression being driven by constitutively active (ca-) forms of BMP type I receptors ALK1, ALK2, and ALK3 (FIG. 1). This was measured in comparison to the inhibition of TGF-β or Activin signaling via CAGA-Luc reporter construct stably expressed in HEK293 cells, with gene expression being driven by constitutively active (ca-) forms of Activin/TGF=β type I receptors ALK4 or ALK5 (FIG. 1). […]. C2C12 myofibroblast cells stably expressing firefly luciferase under the control of BMP-responsive promoter element (BRE-Luc) were generously provided by Dr. Peter ten Dijke (Leiden University Medical Center, NL). Human embryonic kidney 293T cells stably transfected with the TGF-β-responsive element fused to luciferase gene (CAGA-Luc) were a kind gift of Dr. Howard Weiner (Brigham and Women's Hospital, Boston, Mass.). […] Media was discarded and firefly luciferase activity was measured (Promega™) according to manufacturer's protocol. Light output was measured using a Spectramax™ L luminometer (Molecular Devices™) with an integration time of one second per well. […]
# [2] = target: T2, ALK5/TGFBR1 (Homo sapiens, UniProt P36897, T204D); assay: CAGA-Luc luciferase reporter in HEK293 cells driven by constitutively active ALK5; format: cell-based; conditions: Ad.caALK5, read-out: IC50 inhibition of caALK5 activity (CAGA-Luc)
# T2 construct: expressed in transfected cells; host or cells: 293T CAGA-Luc cells infected with Ad.caALK5 (gift of Dr. Akiko Hata)
# T2 sequence (P36897 34-503 T204D): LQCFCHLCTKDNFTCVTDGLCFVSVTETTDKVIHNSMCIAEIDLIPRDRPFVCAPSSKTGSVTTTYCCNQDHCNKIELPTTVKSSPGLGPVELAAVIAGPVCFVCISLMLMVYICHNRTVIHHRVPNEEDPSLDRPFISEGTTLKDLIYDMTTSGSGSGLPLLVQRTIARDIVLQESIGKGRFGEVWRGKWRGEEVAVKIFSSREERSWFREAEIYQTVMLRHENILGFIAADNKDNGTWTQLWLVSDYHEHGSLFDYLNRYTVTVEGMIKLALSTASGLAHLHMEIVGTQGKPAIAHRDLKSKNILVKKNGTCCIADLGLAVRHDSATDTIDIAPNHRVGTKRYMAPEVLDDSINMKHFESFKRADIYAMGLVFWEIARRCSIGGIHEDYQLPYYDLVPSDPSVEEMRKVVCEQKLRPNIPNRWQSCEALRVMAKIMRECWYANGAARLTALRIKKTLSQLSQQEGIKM
# Procedure: as §1
# [3] = system: constitutively activated ALK1-5; assay: Cell-based luciferase reporter assays with constitutively activated ALK1-5, potency comparison; conditions: ALK1-5, BRE-Luc / CAGA-Luc
# Source text: […]. Inhibition curves of BMP and TGF-β transcriptional activity mediated by constitutively activated ALK1-5 in a cell-based luciferase reporter assays. […]. Data shown are representative of more than 3 independent experiments, with data plotted as mean±S.E.M. (n=3 replicates)
# C2C12 myofibroblast cells stably expressing firefly luciferase under the control of BMP-responsive promoter element (BRE-Luc) were generously provided by Dr. Peter ten Dijke (Leiden University Medical Center, NL). Human embryonic kidney 293T cells stably transfected with the TGF-β-responsive element fused to luciferase gene (CAGA-Luc) were a kind gift of Dr. Howard Weiner (Brigham and Women's Hospital, Boston, Mass.). C2C12 Bre-Luc and 293T CAGA-Luc cells were seeded at 20,000 cells in DMEM supplemented with 2% FBS per well in tissue culture treated 96-well plates (Costar® 3610; Corning). The cells were incubated for 1 h (37° C. and 10% CO2) and allowed to settle and attach. […]. Cells were then incubated for 30 min. […] Media was discarded and firefly luciferase activity was measured (Promega™) according to manufacturer's protocol. Light output was measured using a Spectramax™ L luminometer (Molecular Devices™) with an integration time of one second per well. […]
# [4] = system: ACVR1^[R206H]FlEx/+] knock-in mice; assay: ACVR1^[R206H]FlEx/+] knock-in mouse model of FOP
# Procedure: Mice were maintained in accordance with Institutional Animal Care and Use Committee guidelines under approved experimental protocols. […] Heterotopic bone formation in these mice was introduced via single retro-popliteal injection of adenoviral Cre-recombinase at 1×10^8 PFU at postnatal day 7 (P7). […] Bone formation as a function of a loss of passive range of motion, via dorsiflexion of the left ankle joint was assessed daily. […] On day 35 for inducible ACVR1^Q207D mice, and on day 90-120 for inducible ACVR1^R206H mice were sacrificed and imaged via X-ray radiography (MS FX In-Vivo Pro: Carestream Health). Micro-computed tomography (micro-CT) imaging was carried out on samples fixed overnight in 1% paraformaldehyde followed by scanning (μCT35, ScanCo).
# [5] = 60 mg to 250 mg p.o. per day; cited from earlier work
# [6] = system: ACVR1^Q207D (CAG-Z-EGFP-caALK2) transgenic mice; assay: Inducible ACVR1^Q207D-Tg (CAG-Z-EGFP-caALK2) mouse model of heterotopic ossification / FOP; conditions: for heterotopic bone lesions on x-ray: 6 mg/kg i.p. twice daily; for passive range-of-motion: 6 mg/kg intraperitoneally twice daily
# [7] = 25 mg/kg oral gavage daily for first 28 days only, observed up to 90 days
# [8] = 25 mg/kg intraperitoneally twice daily for 28 days
structure (smiles),measurement,setting,value
"CN1CCN(CCOc2cc(OC3CCOCC3)c3c(Nc4c(Cl)ccc5c4OCO5)ncnc3c2)CC1 [AZD-0530, N-(5-chloro-1,3-benzodioxol-4-yl)-7-[2-(4-methylpiperazin-1-yl)ethoxy]-5-[(tetrahydro-2H-pyran-4-yl)oxy]quinazolin-4-amine]",IC50,[1],220 nM
same,IC50,[2],220 nM
same,decreased potency against all receptors compared with LDN-193189,[3],approximately 10 fold
same,change in weight compared to vehicle treated controls,[4]; 25 mg/kg oral gavage daily for 28 days,No statistically significant change
same,progressive loss of range of motion,[4]; [7],protected
same,radiographic bone formation,[4]; [7],protected
same,tolerability in healthy human adults,[5],good tolerability
c1ccc2c(-c3cnn4cc(-c5ccc(N6CCNCC6)cc5)cnc34)ccnc2c1 [LDN-193189],heterotopic bone lesions on x-ray,[6],preventing heterotopic bone lesions
same,passive range-of-motion,[6],effective in preserving range of motion; also recorded: mobility was almost entirely preserved
c1cc(-c2cnn3cc(-c4ccc(N5CCNCC5)cc4)cnc23)c2cccnc2c1 [LDN-212854],heterotopic bone lesions on x-ray,[6],preventing heterotopic bone lesions
same,passive range-of-motion,[6],effective in preserving range of motion; also recorded: mobility was almost entirely preserved
COc1cc2c(Nc3ccc(Br)cc3F)ncnc2cc1OCC1CCN(C)CC1 [ZD-6474],radiographic heterotopic ossification,[6]; [8],did not significantly attenuate; also recorded: no evidence of improvement
same,range-of motion,[6]; [8],no evidence of improvement
